Where two headings read alike, the source gives them in different places.
How the values were obtained:
[1] = target: T1, HCV NS5B polymerase 1a-H77 (Hepatitis C virus genotype 1a, UniProt P27958); test: biochemical; design: species or system HCV genotype 1a; details: enzyme, strain 1a H77; read-out: HCV Polymerase Strain 1a H77 IC50
T1 construct: six-histidine tag; made in house; host or cells: E. coli
In short: (§1)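 Recombinant NS5B (residues 1–570, His-tagged, E. coli-expressed) copied 5 nM of a 2.1 kb HCV 1b negative-strand 3′-end RNA template with 20 μM CTP, 20 μM ATP and 0.284 μM [3H]UTP for 3 h at 30 °C. Spermine-precipitated RNA was filter-captured and counted, and IC50 was fitted by nonlinear regression.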

[2] = target: T2, HCV NS5B polymerase 1a-H77-C316Y (Hepatitis C virus genotype 1a, UniProt P27958, C2736Y); test: biochemical; design: species or system HCV genotype 1a
T2 construct: six-histidine tag; made in house; host or cells: E. coli
T2 sequence (P27958 2421-2990 C2736Y): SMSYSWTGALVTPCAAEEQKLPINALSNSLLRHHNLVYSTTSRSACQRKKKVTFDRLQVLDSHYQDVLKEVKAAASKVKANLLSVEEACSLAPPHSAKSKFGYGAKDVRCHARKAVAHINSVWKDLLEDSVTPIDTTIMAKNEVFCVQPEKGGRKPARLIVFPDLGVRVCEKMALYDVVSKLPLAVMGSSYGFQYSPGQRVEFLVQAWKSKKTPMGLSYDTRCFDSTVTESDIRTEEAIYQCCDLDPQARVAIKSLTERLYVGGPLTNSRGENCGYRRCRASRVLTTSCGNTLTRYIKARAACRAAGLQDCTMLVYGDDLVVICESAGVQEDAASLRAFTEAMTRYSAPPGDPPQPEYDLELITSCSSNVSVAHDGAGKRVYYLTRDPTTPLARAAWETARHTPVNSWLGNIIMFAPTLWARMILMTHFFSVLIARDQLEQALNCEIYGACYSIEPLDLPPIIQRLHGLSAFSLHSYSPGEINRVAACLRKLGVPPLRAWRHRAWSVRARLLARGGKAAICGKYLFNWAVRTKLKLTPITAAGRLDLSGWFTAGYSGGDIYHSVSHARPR
In short: as §1

[3] = tested on: HCV NS5B polymerase 1a-H77-C316Y; test: biochemical; design: species or system HCV genotype 1a; details: ratio of enzyme IC50s, 1a H77-C316Y / 1a H77
In short: as §1

[4] = target: T3, HCV NS5B polymerase 1b BK strain (Hepatitis C virus genotype 1b, UniProt P26663); test: HCV NS5B polymerase enzymatic inhibition assay, strain 1b BK; format: biochemical; details: enzyme, strain 1b BK; read-out: HCV Polymerase Strain 1b BK IC50
T3 construct: six-histidine tag; made in house; host or cells: E. coli
T3 sequence (P26663 2420-2989): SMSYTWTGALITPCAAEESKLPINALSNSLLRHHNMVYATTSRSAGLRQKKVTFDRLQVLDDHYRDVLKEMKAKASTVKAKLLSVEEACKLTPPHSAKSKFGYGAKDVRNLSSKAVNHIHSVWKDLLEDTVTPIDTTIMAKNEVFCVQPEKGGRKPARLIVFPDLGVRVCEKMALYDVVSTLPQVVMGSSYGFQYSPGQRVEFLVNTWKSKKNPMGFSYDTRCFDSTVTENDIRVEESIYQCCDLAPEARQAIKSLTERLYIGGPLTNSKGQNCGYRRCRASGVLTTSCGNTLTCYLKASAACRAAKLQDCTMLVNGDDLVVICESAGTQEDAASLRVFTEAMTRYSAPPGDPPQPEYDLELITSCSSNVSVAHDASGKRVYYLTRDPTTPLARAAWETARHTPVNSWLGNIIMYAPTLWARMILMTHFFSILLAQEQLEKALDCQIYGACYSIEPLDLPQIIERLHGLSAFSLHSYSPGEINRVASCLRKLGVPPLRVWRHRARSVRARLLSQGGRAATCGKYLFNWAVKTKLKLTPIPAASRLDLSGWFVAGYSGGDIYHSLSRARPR
In short: as §1

[5] = tested on: HCV 1a-H77 subgenomic replicon; test: microbe, parasite or virus in culture; format: cell-based, HCV genotype 1a; details: Hepatitis C virus, stable replicon
[6] = tested on: HCV 1b-BB7 subgenomic replicon; test: microbe, parasite or virus in culture; format: cell-based, HCV genotype 1b; details: Hepatitis C virus, stable replicon
[7] = tested on: chimeric replicon with 2a-J6CF-derived NS5B; test: microbe, parasite or virus in culture; format: cell-based, HCV genotype 2a; details: Hepatitis C virus, read-out: 2a chimera 5% FBS EC50
[8] = tested on: chimeric replicon with genotype 2b NS5B; test: microbe, parasite or virus in culture; format: cell-based, HCV genotype 2b; details: Hepatitis C virus, read-out: 2b chimera 5% FBS EC50
[9] = tested on: chimeric replicon with genotype 3a NS5B; test: microbe, parasite or virus in culture; format: cell-based, HCV genotype 3a; details: Hepatitis C virus, read-out: 3a chimera 5% FBS EC50
[10] = tested on: chimeric replicon with genotype 4a NS5B; test: microbe, parasite or virus in culture; format: cell-based, HCV genotype 4a; details: Hepatitis C virus, read-out: 4a chimera 5% FBS EC50
[11] = tested on: HCV 1a-H77 transient subgenomic replicon in Huh-7 derived cell line; test: microbe, parasite or virus in culture; format: cell-based, HCV genotype 1a; details: Hepatitis C virus, Huh-7; transient replicon, 5% FBS; read-out: Transient Replicon 1a H77 5% FBS EC50
Method: (§2) In addition to the stable replicon inhibition assays, transient replicon assays were performed. Transient replicons are identical to the 1a-H77 and 1a-H77-C316Y constructs, except they lack the Neo gene, making it impossible to establish stable cell lines. A T7 Megascript RNA synthesis kit (Ambion) was used to transcribe the HCV subgenomic RNA. The HCV RNA was then precipitated with lithium chloride according to manufacturer's instructions. The HCV subgenomic replicon RNA was transfected via electroporation into a Huh-7 derived cell line as described (Middleton T, et al. J. Virological Methods 2007; 145(2): 137-145). Transfected cells were diluted and plated in 96 well plates at 5×10^3 cells per well in DMEM. Four hours post-transfection, the wells from one plate were harvested for luciferase measurement. This plate provides a measure of the amount of translatable input RNA, and therefore transfection efficiency. To the wells of the remaining plates, a 3-fold dilution series of test compounds was added in DMSO (0.5% DMSO final concentration), and plates were incubated at 37° C., 5% CO2 in a humidified incubator for 4 days. After this period, the media was removed and the plates were washed with 100 μL phosphate-buffered saline per well. For the luciferase assay, 30 μL of Passive Lysis buffer (Promega) was added to each well, and then the plates were incubated for 15 minutes with rocking to lyse the cells. Luciferin solution (100 μL, Promega) was added to each well, and luciferase activity was measured with a Victor II luminometer (Perkin-Elmer). The EC50 values were calculated using GraphPad Prism 4 software.

[12] = tested on: HCV 1a-H77-C316Y transient subgenomic replicon in Huh-7 derived cell line; test: microbe, parasite or virus in culture; format: cell-based, HCV genotype 1a; details: for EC50: Hepatitis C virus, Huh-7, read-out: Transient Replicon 1a H77-C316Y 5% FBS EC50; for Transient Replicon Fold Resistance C316Y/1a: ratio of transient replicon EC50s, C316Y / 1a H77
Method: as §2

[13] = 5% FBS, absence of human plasma, read-out: Stable Replicon 1a H77 5% FBS EC50
[14] = strain 1a H77, 5% FBS + 40% human plasma, read-out: 1a H77 5% FBS + 40% Human Plasma EC50
[15] = strain 1a H77, 5% FBS, no human plasma, read-out: 1a H77 5% FBS EC50
[16] = strain 1a H77, 5% FBS, read-out: 1a H77 5% FBS EC50
[17] = strain 1b BB7, 5% FBS + 40% human plasma, read-out: 1b BB7 5% FBS + 40% Human Plasma EC50
[18] = strain 1b BB7, 5% FBS, no human plasma, read-out: 1b BB7 5% FBS EC50
[19] = strain 1b BB7, 5% FBS, read-out: 1b BB7 5% FBS EC50

T1 sequence (P27958 2421-2990): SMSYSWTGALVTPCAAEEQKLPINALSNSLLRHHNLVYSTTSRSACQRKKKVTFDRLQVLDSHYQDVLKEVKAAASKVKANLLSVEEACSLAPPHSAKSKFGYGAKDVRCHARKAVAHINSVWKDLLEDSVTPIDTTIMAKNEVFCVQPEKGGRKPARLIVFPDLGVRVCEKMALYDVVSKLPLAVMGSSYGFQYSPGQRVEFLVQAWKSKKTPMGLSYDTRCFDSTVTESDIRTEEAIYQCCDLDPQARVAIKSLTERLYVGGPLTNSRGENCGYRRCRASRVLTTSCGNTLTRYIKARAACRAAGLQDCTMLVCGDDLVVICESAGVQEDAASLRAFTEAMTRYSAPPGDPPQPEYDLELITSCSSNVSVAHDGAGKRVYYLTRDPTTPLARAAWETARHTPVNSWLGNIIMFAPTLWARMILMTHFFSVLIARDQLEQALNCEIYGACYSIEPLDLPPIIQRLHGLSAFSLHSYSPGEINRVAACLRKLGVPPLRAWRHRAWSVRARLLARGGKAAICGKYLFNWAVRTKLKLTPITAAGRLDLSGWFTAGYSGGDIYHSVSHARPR

Row | Structure (SMILES) | IC50 [1] | IC50 [2] | C316Y/1a Fold Resistance [3] | IC50 [4] | EC50 [5, 13] | EC50 [5, 14] | EC50 [5, 15] | EC50 [5, 16] | EC50 [6, 17] | EC50 [6, 18] | EC50 [6, 19] | EC50 [7] | EC50 [8] | EC50 [9] | EC50 [10] | EC50 [11] | EC50 [12] | Transient Replicon Fold Resistance C316Y/1a [12]
1 | CS(=O)(=O)Nc1cc2oc(-c3ccc(F)cc3)c(-c3ncc[nH]3)c2cc1C1CC1 [Example 1, N-[5-cyclopropyl-2-(4-fluorophenyl)-3-(1H-imidazol-2-yl)-1-benzofuran-6-yl]methanesulfonamide] | 5.9 nM | 1800 nM | 304 fold | 87 nM | 207 nM | 4710 nM | 207 nM | 207 nM | 281 nM | 18.2 nM | 18.2 nM | 223 nM | 219 nM | 13 nM | 242 nM | 192 nM | – | –
2 | CC(C)CCN(c1cc2oc(-c3ccc(F)cc3)c(C3=NOC(C)N3)c2cc1C1CC1)S(C)(=O)=O (centres unmarked) [Example 14, N-[5-cyclopropyl-2-(4-fluorophenyl)-3-(5-methyl-4,5-dihydro-1,2,4-oxadiazol-3-yl)-1-benzofuran-6-yl]-N-(3-methylbutyl)methanesulfonamide] | 8.5 nM | 70 nM | 8 fold | 35 nM | 24.3 nM | 805 nM | 24.3 nM | 24.3 nM | 1060 nM | 93.5 nM | 93.5 nM | – | – | – | – | 28.1 nM | 152 nM | 5 fold
3 | CS(=O)(=O)N(Cc1cnc(-c2ccc3[nH]ccc3c2)s1)c1cc2oc(-c3ccc(F)cc3)c(-c3ncc[nH]3)c2cc1C1CC1 [Example 31, N-[5-cyclopropyl-2-(4-fluorophenyl)-3-(1H-imidazol-2-yl)-1-benzofuran-6-yl]-N-{[2-(1H-indol-5-yl)-1,3-thiazol-5-yl]methyl}methanesulfonamide] | 3.5 nM | 172 nM | 50 fold | 7 nM | 41.6 nM | 382 nM | 41.6 nM | 41.6 nM | 201 nM | 28.4 nM | 28.4 nM | 185 nM | 151 nM | – | 84 nM | 30.9 nM | 828 nM | 27 fold
4 | CCCN(c1cc2oc(-c3ccc(F)cc3)c(-c3ncc[nH]3)c2cc1C1CC1)S(C)(=O)=O [Example 64, N-[5-cyclopropyl-2-(4-fluorophenyl)-3-(1H-imidazol-2-yl)-1-benzofuran-6-yl]-N-propylmethanesulfonamide] | 5.3 nM | 180 nM | 34 fold | 29 nM | 24.3 nM | 267 nM | 24.3 nM | 24.3 nM | 110 nM | 12 nM | 12 nM | 57.9 nM | 67.4 nM | 1.6 nM | 125 nM | 20.2 nM | – | –
5 | CC(C)CN(c1cc2oc(-c3ccc(F)cc3)c(-c3ncc[nH]3)c2cc1C1CC1)S(C)(=O)=O [Example 66, N-[5-cyclopropyl-2-(4-fluorophenyl)-3-(1H-imidazol-2-yl)-1-benzofuran-6-yl]-N-isobutylmethanesulfonamide] | 5.9 nM | 901 nM | 152 fold | 70 nM | 59.8 nM | 683 nM | 59.8 nM | 59.8 nM | 569 nM | 56.4 nM | 56.4 nM | 215 nM | 293 nM | 83.9 nM | 318 nM | 68.9 nM | – | –
6 | CS(=O)(=O)N(CCCC(=O)O)c1cc2oc(-c3ccc(F)cc3)c(C3=NOCCN3)c2cc1C1CC1 [Example 135, 4-{[5-cyclopropyl-3-(5,6-dihydro-4H-1,2,4-oxadiazin-3-yl)-2-(4-fluorophenyl)-1-benzofuran-6-yl](methylsulfonyl)amino}butanoic acid] | 3.9 nM | 41 nM | 11 fold | 28 nM | 969 nM | 7910 nM | 969 nM | 969 nM | 5520 nM | 783 nM | 783 nM | – | – | – | – | 372 nM | 3040 nM | 8 fold
7 | COc1ccc(CN(c2cc3oc(-c4ccc(F)cc4)c(C4=NOC(C)N4)c3cc2C2CC2)S(C)(=O)=O)cc1 (centres unmarked) [Example 151, N-[5-cyclopropyl-2-(4-fluorophenyl)-3-(5-methyl-4,5-dihydro-1,2,4-oxadiazol-3-yl)-1-benzofuran-6-yl]-N-(4-methoxybenzyl)methanesulfonamide] | 9 nM | 102 nM | 11 fold | 48 nM | 119 nM | 2280 nM | 119 nM | 119 nM | 1500 nM | 30 nM | 30 nM | – | – | – | – | 33.2 nM | 2930 nM | 88 fold

Reference: patent US20160355530A1, “HEPATITIS C INHIBITORS AND USES THEREOF” (AbbVie Inc., priority 2010, published 2016)
